Test results: US8741867B2, “Retinoid-liposomes for treating fibrosis” (Nitto Denko Corporation, priority 2011, dated 2014)
Like-named read-outs stand apart in the source and are kept apart here. d = 2'-deoxy (DNA); r = 2'-OH (RNA)

Tests used:
rat gp46 [1] = test: Inhibition of gp46 expression by prepared siRNA in NRK cells (western blot); format: cell-based
Method: Normal rat kidney cells (NRK cells), which had rat gp46 and were fibroblasts producing collagen, were transfected with 0.1 nM to 50 nM siRNA and cultured for 12 to 48 hours (FIG. 1). The amount of expression of gp46 was checked by the western blot method (FIGS. 2 to 4, upper band corresponding to gp46, lower band corresponding to actin control). All of the siRNAs inhibited the expression of gp46 protein remarkably compared with a vehicle (FIG. 2).

[2] = tested on: rat fibroblasts (NRK cells); test: Inhibition of collagen synthesis by siRNA (3H-proline, collagenase-sensitive fraction); format: cell-based; conditions: siRNA 50 nM, 48 hours, compared with control group
Method: In order to examine the amount of collagen synthesized, ^3H-proline was added to the culture supernatant of rat fibroblasts (NRK cells) under the above-mentioned conditions (siRNA concentration 50 nM, time 48 hours), and after transfection the amount of ^3H in secreted protein was examined (FIG. 5). The amount of collagen synthesized was calculated from the ratio of protein secreted in the supernatant to protein degraded by collagenase when culturing gp46siRNA-transfected fibroblasts in the presence of ^3H-proline in accordance with Peterkofsky et al., 1971 Biochemistry 10:988-94. Collagen synthesis ratio=collagenase−sensitive fraction×100(5.4×collagenase−insensitive fraction+collagenase−sensitive fraction)
The collagen synthesis ratio in rat fibroblasts decreased by about 40% compared with a control group (FIG. 6).

rat gp46 [3] = test: Inhibitory efficiency of siHsp47 in 293_GP46-GFP reporter cell line (GFP fluorescence); format: cell-based; conditions: 293_GP46-GFP cell line, normalized to scrambled siRNA
Description: (§1) The fluorescent signals were normalized to fluorescent signals from cells treated with scrambled siRNA (Ambion) which served as a control.

human HSP47 = test: Inhibitory efficiency of siHsp47 in 293_HSP47-GFP reporter cell line (GFP fluorescence); format: cell-based; conditions: 293_HSP47-GFP cell line, normalized to scrambled siRNA
Description: as §1

HSP47 protein = test: siHsp47 knock down effect at the protein level in hTERT cells (western blot); format: cell-based, human; conditions: hTERT cell lysate
Method: The inhibitory effect of different Hsp47 siNA molecules (siHsp47) on hsp47 mRNA expression were validated at the protein level by measuring the HSP47 in hTERT cells transfected with different siHsp47. Transfection of hTERT cells with different siHsp47 were performed as described in Example 13. Transfected hTERT cells were lysed and the cell lysate were clarified by centrifugation. Proteins in the clarified cell lysate were resolved by SDS polyacrylamide gel electrophoresis. The level of HSP47 protein in the cell lysate were determined using an anti-HSP47 antibody (Assay Designs) as the primary antibody, Goat anti-mouse IgG conjugated with HRP (Millipore) as the secondary antibody, and subsequently detected by Supersignal West Pico Chemiluminescence kit (Pierce). Anti-actin antibody (Abcam) was used as a protein loading control.

293_GP46-GFP cell line = format: cell-based, human
Method: (§2) Cells treated with or without siNA were measured for viability after 72 hours incubation using CellTiter-Glo Luminescent Cell Viability Assay Kit according to the manual (Promega). The readings were normalized to samples treated with scrambled siNA molecules.
(§3) The 293_HSP47-GFP and 293_GP46-GFP cell lines treated with siRNA against hsp47 and gp46 were evaluated for viability using the methods described in Example 2. The cell viability was normalized to cells treated with scrambled siRNA (Ambion).

hsp47 mRNA = test: siHsp47 inhibitory effect on hsp47 mRNA by TaqMan qPCR in hTERT cells; format: cell-based, human; conditions: 72 hours after transfection, normalized to GAPDH
Method: In Example 14, the knock down efficiency of siHsp47s in reporter cell lines was evaluated by change in fluorescent signal. To validate the results at the mRNA level, siRNAs targeting endogenous hsp47 were transfected into cells of the human HSC cell line hTERT using Lipofectamine RNAiMAX (Invitrogen) in a reverse transfection manner as described in Example 13
The hsp47 mRNA level was evaluated for knock down efficiency of the various tested siHsp47 siNA molecules. Briefly, mRNA were isolated from hTERT cells after 72 hours after transfection using an RNeasy mini kit (Qiagen). The level of hsp47 mRNA was determined by reverse transcription coupled with quantitative PCR using TaqMan® probes. Briefly, cDNA synthesis was carried out using High-Capacity cDNA Reverse Transcription Kit (ABI) according to the manufacturer's instruction, and subjected to TaqMan Gene Expression Assay (ABI, hsp47). The level of hsp47 mRNA was normalized to the level of GAPDH mRNA according to the manufacturer's instruction (ABI).

293_HSP47-GFP cell line [4] = tested on: 293_HSP47-GFP cell line
Method: as §2, §3

collagen I mRNA = test: Downregulation of collagen I expression by hsp47 siRNA in hTERT cells (TaqMan qPCR); format: cell-based, human; conditions: 72 hours, normalized to GAPDH and scrambled siNA
Method: To determine the effect of siHsp47 on collagen I expression level, collagen I mRNA level in hTERT cells treated with different siRNA against hsp47 was measured. Briefly, hTERT cells were transfected with different siHsp47 as described in Example 13. The cells were lysed after 72 hours and mRNA were isolated using RNeasy mini kit according to the manual (Qiagen). The level of collagen 1 mRNA was determined by reverse transcription coupled with quantitative PCR using TaqMan® probes. Briefly, cDNA synthesis was carried out using High-Capacity cDNA Reverse Transcription Kit (ABI) according to the manual, and subjected to TaqMan Gene Expression Assay (ABI, COL 1A1 assay). The level of collagen I mRNA was normalized to the level of GAPDH mRNA according to the manufacturer's instruction (ABI). The signals were normalized to the signal obtained from cells transfected with scrambled siNA.

293_HSP47-GFP cell line [5] = test: Cell viability of 293_HSP47-GFP cells treated with siNA (CellTiter-Glo); conditions: normalized to scrambled siRNA
Method: as §2, §3

| Substance | knockdown of rat GP46 (GFP fluorescent signal) (rat gp46 [3]) | knockdown of human HSP47 (GFP fluorescent signal) (human HSP47) | level of Hsp47 protein (HSP47 protein) | cell viability / cytotoxicity (293_GP46-GFP cell line) | knock down of hsp47 mRNA (remaining mRNA level) (hsp47 mRNA) | cell viability / cytotoxicity (293_HSP47-GFP cell line [4]) | collagen I mRNA level (collagen I mRNA) | cell viability / cytotoxicity (293_HSP47-GFP cell line [5]) | other results |
| --- | --- | --- | --- | --- | --- | --- | --- | --- | --- |
| Sequence A: siRNA for rat gp46, GUUCCACCAUAAGAUGGUAGACAAC (SEQ ID NO: 2728) (chemistry not given here) |  |  |  |  |  |  |  |  | inhibition of gp46 expression, dependence on concentration (rat gp46 [1]; 0.1 nM to 50 nM siRNA): concentration dependent; inhibition of gp46 protein expression (rat gp46 [1]; 50 nM siRNA, 48 hours): about 90%; expression of gp46 protein (western blot) (rat gp46 [1]; 24 hour culturing, examination of optimal sequence, compared with vehicle): strongest effect; decrease of collagen synthesis ratio [2]: about 40% |
| siHsp47-C: siRNA to human and rat hsp47, 19mer duplex, dTdT overhangs; sense GGACAGGCCUCUACAACUAdTdT (SEQ ID NO 5/6) (sense GGACAGGCCUCUACAACUATT; antisense UAGUUGUAGAGGCCUGUCCTT; sugars from the 5' end r19 d2, backbone not given here) | efficiently knockdown | efficiently knockdown | significant decrease | without substantial cytotoxicity | most effective | without substantial cytotoxicity |  |  |  |
| siHsp47-2d: siRNA to human hsp47 cDNA 469-493, 25-mer duplex; sense GAGCACUCCAAGAUCAACUUCCGdCdG (SEQ ID NO 25/26) (sense GAGCACUCCAAGAUCAACUUCCGCG; antisense GCGGAAGUUGAUCUUGGAGUGCUCUU; sense: sugars from the 5' end r23 d2, backbone not given here; antisense: chemistry not given here) | efficiently knockdown | efficiently knockdown | significant decrease | without substantial cytotoxicity | next most effective | without substantial cytotoxicity | significantly reduced |  |  |
| Hsp47-7: siRNA to human hsp47 cDNA 692-710, 19-mer duplex; SEQ ID NO 57/58 (chain 1 CCGUGGGUGUCAUGAUGAUUU; chain 2 AUCAUCAUGACACCCACGGUU; chemistry not fully specified) |  |  |  |  |  |  |  | lower |  |
| siHsp47-6: siRNA to human hsp47 cDNA 446-464, 19-mer duplex; SEQ ID NO 53/54 (chain 1 GCAGCAAGCAGCACUACAAUU; chain 2 UUGUAGUGCUGCUUGCUGCUU; chemistry not fully specified) |  |  |  |  |  |  |  | lower |  |
| siHsp47-2: siRNA to human hsp47 cDNA 469-487, 19-mer duplex; sense GAGCACUCCAAGAUCAACUdTdT (SEQ ID NO 21/22) (sense GAGCACUCCAAGAUCAACUTT; antisense AGUUGAUCUUGGAGUGCUCTT; sugars from the 5' end r19 d2, backbone not given here) | efficiently knockdown | efficiently knockdown |  | without substantial cytotoxicity | next most effective | without substantial cytotoxicity | significantly reduced |  |  |
